Test results: patent publication US7071165B2, “LHRH antagonist peptides” (Indiana University Research and Technology Corporation, priority 1995, dated 2006)

What follows are substances tested on ovulation in female rats (assay: Anti-ovulatory activity (AOA) in vivo assay in rats). Settings: dose 1 μg per rat.
Design: species or system rat
Protocol: As used herein, “LHRH antagonist peptide” is intended to include peptides and peptide analogs which inhibit LHRH activity (i.e., has “LHRH antagonist activity”) in vivo or in vitro. Candidate LHRH antagonist peptides can be assayed, for example, in the animal model described in Corbin and Beattie, Endocrine Res. Commun. 2:1 (1975) (and see infra). In this assay, the LHRH antagonistic activity of a candidate compound is assayed by measuring the antiovulatory activity (AOA) of the compound in rats.
Anti-ovulatory activity (AOA) was measured by an in vivo assay in rats, as described in Corbin and Beattie, Endocrine Res. Commun. 2:1 (1975). In brief, female rats are injected with a candidate LHRH antagonist on the day of proestrus; in general, the candidate LHRH antagonist was dissolved in 0.1% DMSO. The ability of the candidate peptide to inhibit ovulation is measured by determining the number of rats which ovulate. A candidate peptide is considered to have LHRH antagonist qualities if it inhibits ovulation in at least 50% of the treated rats at a dose of 5 μg per rat. Preferred LHRH antagonists inhibit ovulation in at least 50% of rats at a dose of 2 μg per rat, more preferably at a dose of […], and still more preferably at a dose of 0.5 μg per rat.

| Substance | AO activity (AOA): rats which ovulate / rats treated |
| --- | --- |
| Ac-D-Nal^1,4-Cl-D-Phe^2,D-Pal^3,D-Lys(COCH2S^+Me2)^6, D-Ala^10-LHRH.2TFA [Compound 4014] | 0/8@1.00 |
| Ac-D-Nal^1, 4-Cl-D-Phe^2, D-Pal(N—O)^3, D-Pal(iPr)^6, Lys(iPr)^8, D-Ala^10-LHRH.2TFA [Compound 3882] | 6/8@1.0 |
| Ac-D-Nal^1, 4-Cl-D-Phe^2, D-Pal^3, Asn^4, Tyr^5, D-Cit^6, Lys(iPr)^8, D-Ala^10-LHRH.TFA [Compound 3434] | 4/8@1 μg |
| Ac-D-Nal^1, 4-Cl-D-Phe^2, D-Pal^3, Asn^5, D-Pal(iPr)^6, Lys(iPr)^8, D-Ala^10-LHRH.2TFA [Compound 3744] | 7/8@1.0 |
| Ac-D-Nal^1, 4-Cl-D-Phe^2, D-Pal^3, Cit^5, D-Cit^6, Lys(iPr)^8, D-Ala^10-LHRH.TFA [Compound 3431] | 6/8@1 μg |
| Ac-D-Nal^1, 4-Cl-D-Phe^2, D-Pal^3, Cit^5, D-Pal(iPr)^6, Lys(iPr)^8, D-Ala^10-LHRH.TFA [Compound 3435] | 7/8@1 μg |
| Ac-D-Nal^1, 4-Cl-D-Phe^2, D-Pal^3, Cit^5, D-Pal^6, Lys(iPr)^8, D-Ala^10-LHRH.TFA [Compound 3433] | 5/8@1 μg |
| Ac-D-Nal^1, 4-Cl-D-Phe^2, D-Pal^3, D-Arg^6, Dap(COCH2S^+Me2)^8, D-Ala^10-LHRH.2TFA [Compound 4023] | 0/8@1.00 |
| Ac-D-Nal^1, 4-Cl-D-Phe^2, D-Pal^3, D-Arg^6, Lys(COCH2S^+Me2)^8, D-Ala^10-LHRH.2TFA [Compound 4015] | 1/8@1.00 |
| Ac-D-Nal^1, 4-Cl-D-Phe^2, D-Pal^3, D-Arg^6, Met^8, D-Ala^10-LHRH.TFA [Compound 3995] | 5/8@1.00 |
| Ac-D-Nal^1, 4-Cl-D-Phe^2, D-Pal^3, D-Arg^6, Orn(COCH2SMe)^8, D-Ala^10-LHRH.2TFA [Compound 3994] | 6/8@1.00 |
| Ac-D-Nal^1, 4-Cl-D-Phe^2, D-Pal^3, D-Dap(COCH2S^+Me2)^6, D-Ala^10-LHRH.2TFA [Compound 3969] | 3/8@1.00 |
| Ac-D-Nal^1, 4-Cl-D-Phe^2, D-Pal^3, D-Gln(iPr)^6, Lys(iPr)^8, D-Ala^10-LHRH.2TFA [Compound 3545] | 7/8@1 μg |
| Ac-D-Nal^1, 4-Cl-D-Phe^2, D-Pal^3, D-Glu(Amp)^6, Lys(iPr)^8, D-Ala^10-LHRH.TFA [Compound 3511] | 7/8@1 μg |
| Ac-D-Nal^1, 4-Cl-D-Phe^2, D-Pal^3, D-Glu(CSer)^6, Lys(iPr)^8, D-Ala^10-LHRH.2TFA [Compound 3550] | 6/8@1 μg |
| Ac-D-Nal^1, 4-Cl-D-Phe^2, D-Pal^3, D-Glu(Dea)^6, Lys(iPr)^8, D-Ala^10-LHRH.TFA [Compound 3543] | 6/8@1 μg |
| Ac-D-Nal^1, 4-Cl-D-Phe^2, D-Pal^3, D-Glu(Mop)^6, Lys(iPr)^8, D-Ala^10-LHRH.2TFA [Compound 3549] | 6/8@1 μg |
| Ac-D-Nal^1, 4-Cl-D-Phe^2, D-Pal^3, D-Glu^6, Lys(iPr)^8, D-Ala^10-LHRH.TFA [Compound 3552] | 8/8@1 μg |
| Ac-D-Nal^1, 4-Cl-D-Phe^2, D-Pal^3, D-HomoArg(NO2)^6, Lys(iPr)^8, D-Ala^10-LHRH.TFA [Compound 3436] | 7/8@1 μg |
| Ac-D-Nal^1, 4-Cl-D-Phe^2, D-Pal^3, D-Lys(2-ClNic)^6, Lys(iPr)^8, D-Ala^10-LHRH.TFA [Compound 3441] | 8/8@1 μg |
| Ac-D-Nal^1, 4-Cl-D-Phe^2, D-Pal^3, D-Lys(2-pyrimidylthio)acetic)^6, Lys(iPr)^8, D-Ala^10-LHRH.TFA [Compound 3960] | 5/8@1.00 |

| Substance | AO activity (AOA): rats which ovulate / rats treated |
| --- | --- |
| Ac-D-Nal^1, 4-Cl-D-Phe^2, D-Pal^3, D-Lys(3-pyridineacetic)^6, Lys(iPr)^8, D-Ala^10-LHRH.TFA [Compound 3440] | 2/8@1 μg |
| Ac-D-Nal^1, 4-Cl-D-Phe^2, D-Pal^3, D-Lys(3-Δ-Pro)^6, Lys(iPr)^8, D-Ala^10-LHRH-TFA [Compound 3721] | 4/8@1.0 |
| Ac-D-Nal^1, 4-Cl-D-Phe^2, D-Pal^3, D-Lys(AcGly)^6, Lys(iPr)^8, D-Ala^10-LHRH.TFA [Compound 3759] | 5/8@1.0 |
| Ac-D-Nal^1, 4-Cl-D-Phe^2, D-Pal^3, D-Lys(Ala)^6, Lys(iPr)^8, D-Ala^10-LHRH.TFA [Compound 3771] | 7/8@1.0 |
| Ac-D-Nal^1, 4-Cl-D-Phe^2, D-Pal^3, D-Lys(Dodac)^6, Lys(iPr)^8, D-Ala^10-LHRH.TFA [Compound 3803] | 2/8@1.0 |
| Ac-D-Nal^1, 4-Cl-D-Phe^2, D-Pal^3, D-Lys(Glycolyl)^6, Lys(iPr)^8, D-Ala^10-LHRH.TFA [Compound 3437] | 7/8@1 μg |
| Ac-D-Nal^1, 4-Cl-D-Phe^2, D-Pal^3, D-Lys(Gulonyl)^6, Lys(iPr)^8, D-Ala^10-LHRH.TFA [Compound 3506] | 4/8@1 μg |
| Ac-D-Nal^1, 4-Cl-D-Phe^2, D-Pal^3, D-Lys(Hippic)^6, Lys(iPr)^8, D-Ala^10-LHRH.TFA [Compound 3758] | 5/8@1.0 |
| Ac-D-Nal^1, 4-Cl-D-Phe^2, D-Pal^3, D-Lys(HomoPro)^6, Lys(iPr)^8, D-Ala^10-LHRH.TFA [Compound 3439] | 2/8@1 μg |
| Ac-D-Nal^1, 4-Cl-D-Phe^2, D-Pal^3, D-Lys(ONic)^6, Lys(iPr)^8, D-Ala^10-LHRH.TFA [Compound 3507] | 1/8@μg |
| Ac-D-Nal^1, 4-Cl-D-Phe^2, D-Pal^3, D-Lys(Orotic)^6, Lys(iPr)^8, D-Ala^10-LHRH.TFA [Compound 3762] | 6/8@1.0 |
| Ac-D-Nal^1, 4-Cl-D-Phe^2, D-Pal^3, D-Lys(iPr)^5, D-Lys(TFAc)^6, Lys(iPr)^8, D-Ala^10-LHRH.2TFA [Compound 3753] | 7/8@1.0 |
| Ac-D-Nal^1, 4-Cl-D-Phe^2, D-Pal^3, D-Lys(iPrNic)^5, D-Lys(iPrNic)^6, Lys(iPr)^8, D-Ala^10-LHRH.TFA [Compound 3553] | 8/8@1 μg |
| Ac-D-Nal^1, 4-Cl-D-Phe^2, D-Pal^3, D-Lys^6, Lys(iPr)^8, D-Ala^10-LHRH.TFA [Compound 3505] | 5/8@1 μg |
| Ac-D-Nal^1, 4-Cl-D-Phe^2, D-Pal^3, D-Met(S^+CH2COPh)^6, D-Ala^10-LHRH.2TFA [Compound 3968] | 4/8@1.00 |
| Ac-D-Nal^1, 4-Cl-D-Phe^2, D-Pal^3, D-Met(S^+Me)^6, Met(S^+Me)^8, D-Ala^10-LHRH.2TFA [Compound 4016] | 6/8@1.00 |
| Ac-D-Nal^1, 4-Cl-D-Phe^2, D-Pal^3, D-Orn(COCH2S^+Me2)^6, D-Ala^10-LHRH.2TFA [Compound 4013] | 0/8@1.00 |
| Ac-D-Nal^1, 4-Cl-D-Phe^2, D-Pal^3, D-Pal(1-Bu)^6, Lys(iPr)^8, D-Ala^10-LHRH.TFA [Compound 3428] | 1/8@1 μg |
| Ac-D-Nal^1, 4-Cl-D-Phe^2, D-Pal^3, D-Pal(CH2COOH)^6, Lys(iPr)^8, D-Ala^10-LHRH.TFA [Compound 3770] | 6/8@1.0 |
| Ac-D-Nal^1, 4-Cl-D-Phe^2, D-Pal^3, D-Pal(N—O)^6, Lys(iPr)^8, D-Ala^10-LHRH.TFA [Compound 3786] | 4/8@1.0 |

Same assay, conditions: dose 2 μg per rat

| Substance | AO activity (AOA): rats which ovulate / rats treated |
| --- | --- |
| Ac-D-Nal^1, 4-Cl-D-Phe^2, D-Pal^3, D-Glu(PEG)^6, Lys(iPr)^8, D-Ala^10-LHRH.2TFA [Compound 3542] | 7/8@2 μg |

Same assay, conditions: dose 5 μg per rat

| Substance | AO activity (AOA): rats which ovulate / rats treated |
| --- | --- |
| Ac-D-(or L)-9-anthryl-Ala^1, 4-Cl-D-Phe^2, D-Pal^3, D-Cit^6-Lys(iPr)^8, D-Ala^10-LHRH.TFA [Compound 3366] | 6/8@5 μg |
| Ac-D-Nal-4-Cl-D-Phe^2, D-Pal^3, D-Lys(Ac-D-Nal^1 , 4-Cl-D-Phe^2, D-Pal^3, Ser)^6, Lys(iPr)^8, D-Ala^10-LHRH.TFA [Compound 3722] | 8/8@5.0 |
| Ac-D-Nal^1, 4-Cl-D-Phe^2, D-Pal^3, Arg^5, D-His^6, Trp^7, Orn^8, D-Ala^10-LHRH.TFA [Compound 3854] | 6/8@5.0 |
| Ac-D-Nal^1, 4-Cl-D-Phe^2, D-Pal^3, His^5, D-Arg^6, Trp^7, Orn^8, D-Ala^10-LHRH.TFA [Compound 3853] | 0/8@5.0 |

Same assay, conditions: rat, in vivo

| Substance | AO activity (AOA), in words |
| --- | --- |
| Ac-D-Nal^1, 4-Cl-D-Phe^2, D-Pal^3, D-Arg^6, Dap(COCH2S^+Me2)^8, D-Ala^10-LHRH.2TFA [Compound 4023] | effective |
| Ac-D-Nal^1, 4-Cl-D-Phe^2, D-Pal^3, D-Lys(COCH2CH2N(Et)2)^6, D-Ala^10-LHRH.2TFA [Compound 3949] | low activity |
| Ac-D-Nal^1, 4-Cl-D-Phe^2, D-Pal^3, D-Lys(ONic)^6, Lys(iPr)^8, D-Ala^10-LHRH.TFA [Compound 3507] | high AOA |
